Laboratory results: article PMC13352219, “Analysis of glutamine synthetase target‐site mutations and their role in endowing glufosinate‐ammonium resistance” (Pest Management Science, 2026)

Legend:
[1] = test system: Amaranthus palmeri cytosolic GS1.1 A309Y; assay: GS enzyme inhibition assay, GS1.1 A309Y; format: biochemical
Description: (§1) GS activity was determined spectrophotometrically following the Sigma‐Aldrich enzymatic assay protocol. The reaction couples the ATP‐dependent conversion of L‐glutamate and ammonium to L‐glutamine with pyruvate kinase (PK) and L‐lactate dehydrogenase (LDH), such that oxidation of β‐NADH to β‐NAD^+ can be monitored at 340 nm. Recombinant GS from A. palmeri was expressed in E. coli, purified by affinity chromatography, and quantified by the Bradford method using bovine serum albumin as standard. […] Reaction mixtures were equilibrated to 37°C and initiated by the addition of enzyme, and the decrease in absorbance at 340 nm was recorded for 5–10 min; only the linear portion of the curve was used for activity calculations. […] Activity was calculated using an extinction coefficient for NADH of 6.22 mM^−1 cm^−1 and expressed as units per mg protein, where one unit corresponds to the formation of 1 μmol of L‐glutamine in […] at pH 7.1 and 37 °C. […] Percent inhibition was calculated relative to untreated (positive) and no‐enzyme (negative) controls. […] Resistance factors were calculated by dividing the IC₅₀ of each mutant variant by that of wild‐type GS.

[2] = test system: Amaranthus palmeri cytosolic GS1.1 E69L; assay: GS enzyme inhibition assay, GS1.1 E69L; format: biochemical
Description: as §1

[3] = test system: Arabidopsis thaliana plants expressing Amaranthus palmeri GS2.2 G255D; assay: Postemergence GFA spray on transgenic Arabidopsis expressing GS2.2 G255D; format: in vivo; conditions: 100, 500 and 1000 g ha^−1 postemergence, listed as GFA
Source text: Mutant GS variants G2.2 G255D from A. palmeri and G254D from Arabidopsis were cloned into the RTP6557 transformation vector, which was subsequently introduced into Agrobacterium tumefaciens strain C58C1pMP90. The construct also carried an acetolactate synthase (ALS) herbicide‐resistance gene as a selectable marker, ensuring that Arabidopsis seedlings tested for resistance to GFA herbicide expressed the transgene.
Arabidopsis plants carrying immature floral buds were transformed by the floral‐dip method, immersing inflorescences for 10 s in the bacterial suspension supplemented with Silwet‐L77 at 0.05% v/v. After dipping, plants were maintained overnight under high humidity and low light, then transferred to long‐day conditions until maturity. Once siliques had yellowed, seeds were harvested into paper bags. T₁ seeds were collected, placed into Falcon tubes, and stored at 4 °C.
After ≥14 d of cold storage, T₁ seeds were sown and stratified as previously described. Transgenic plants were confirmed by PCR detection of the AHAS resistance marker gene. […]
Herbicide treatments were applied at the 10‐leaf stage using a spray chamber calibrated to deliver 375 L ha^−1 of spray solution. […] Herbicide efficacy was visually evaluated 7 d after application.

[4] = test system: Amaranthus palmeri cytosolic GS1.1 Y158T; assay: GS enzyme inhibition assay, GS1.1 Y158T; format: biochemical
Description: as §1

[5] = test system: Amaranthus palmeri cytosolic GS1.1 S58M; assay: GS enzyme inhibition assay, GS1.1 S58M; format: biochemical
Description: as §1

[6] = test system: Amaranthus palmeri cytosolic GS1.1 R311Q; assay: GS enzyme inhibition assay, GS1.1 R311Q; format: biochemical
Description: as §1

[7] = test system: Amaranthus palmeri cytosolic GS1.1 E297Q; assay: GS enzyme inhibition assay, GS1.1 E297Q; format: biochemical
Description: as §1

[8] = test system: Amaranthus palmeri cytosolic GS1.1 E131G; assay: GS enzyme inhibition assay, GS1.1 E131G; format: biochemical
Description: as §1

[9] = test system: Amaranthus palmeri cytosolic GS1.1 V161N; assay: GS enzyme inhibition assay, GS1.1 V161N; format: biochemical
Description: as §1

[10] = test system: Amaranthus palmeri cytosolic GS1.1 R34A; assay: GS enzyme inhibition assay, GS1.1 R34A; format: biochemical
Description: as §1

[11] = target: Amaranthus palmeri cytosolic GS1.1 G245P; assay: GS enzyme inhibition assay, GS1.1 G245P; format: biochemical; conditions: read-out: Glufosinate‐ammonium IC50
Description: as §1

[12] = test system: Amaranthus palmeri cytosolic GS1.1 S174E; assay: GS enzyme inhibition assay, GS1.1 S174E; format: biochemical
Description: as §1

[13] = test system: Amaranthus palmeri cytosolic GS1.1 H249L; assay: GS enzyme inhibition assay, GS1.1 H249L; format: biochemical
Description: as §1

[14] = target: Eleusine indica GS1.1 S59G; assay: GS enzyme inhibition assay, ELEIN GS1.1 S59G; format: biochemical
[15] = test system: GFA‐resistant E. indica population; design: method as in ref 10 = [10]; 10 Jalaludin A , Ngim J , Bakar BH and Alias Z , Preliminary findings of potentially resistant goosegrass ( Eleusine indica ) to glufosinate ammonium in Malaysia . Weed Biol Manage 10 : 256 – 260 ( 20); conditions: cited from earlier work
[16] = test system: Amaranthus palmeri cytosolic GS1.1 E131Q; assay: GS enzyme inhibition assay, GS1.1 E131Q; format: biochemical
Description: as §1

[17] = test system: Amaranthus palmeri cytosolic GS1.1 R291L; assay: GS enzyme inhibition assay, GS1.1 R291L; format: biochemical
Description: as §1

[18] = test system: Amaranthus palmeri cytosolic GS1.1 D56S; assay: GS enzyme inhibition assay, GS1.1 D56S; format: biochemical
Description: as §1

[19] = test system: Amaranthus palmeri cytosolic GS1.1 G160T; assay: GS enzyme inhibition assay, GS1.1 G160T; format: biochemical
Description: as §1

[20] = read-out: Glufosinate‐ammonium IC50

SMILES: CP(=O)(O)CCC(N)C(=O)O (stereo not shown) [Glufosinate‐ammonium]
- Resistance index (RI) ([1]; IC50 variant / IC50 WT): 799.7
- IC50 ([1]; read-out: Glufosinate‐ammonium IC50 (converted)): 17.4 mM
- Resistance index (RI) ([2]; IC50 variant / IC50 WT): 11.4
- IC50 [2, 20]: 246 µM
- tolerance to GFA (visual injury) [3]: chlorosis and necrosis comparable to wild‐type controls
- Resistance index (RI) ([4]; IC50 variant / IC50 WT): 3.5
- IC50 [4, 20]: 76 µM
- Resistance index (RI) ([5]; IC50 variant / IC50 WT): 4.3
- IC50 [5, 20]: 94 µM
- Glufosinate‐ammonium % Inhibition at saturation 10 000 μM ([6]; 10 000 μM): 1.9%
- IC50 [6, 20]: > 10 mM
- Resistance index (RI) ([7]; IC50 variant / IC50 WT): 0.0
- IC50 [7, 20]: 600 nM
- Glufosinate‐ammonium % Inhibition at saturation 10 000 μM ([8]; 10 000 μM): 7.2%
- IC50 [8, 20]: > 10 mM
- Resistance index (RI) ([9]; IC50 variant / IC50 WT): 3.0
- IC50 [9, 20]: 64 µM
- Resistance index (RI) ([10]; IC50 variant / IC50 WT): 8.4
- IC50 [10, 20]: 182 µM
- IC50 [11]: 247 µM
- Resistance index (RI) ([12]; IC50 variant / IC50 WT): 0.0
- IC50 [12, 20]: 1000 nM
- Glufosinate‐ammonium % Inhibition at saturation 10 000 μM ([13]; 10 000 μM): 7.8%
- IC50 [13, 20]: > 10 mM
- IC50 [14]: 19 µM
- resistance [15]: up to 20 fold
- Glufosinate‐ammonium % Inhibition at saturation 10 000 μM ([16]; 10 000 μM): 6.5%
- IC50 [16, 20]: > 10 mM
- Glufosinate‐ammonium % Inhibition at saturation 10 000 μM ([17]; 10 000 μM): 0%
- IC50 [17, 20]: > 10 mM
- Resistance index (RI) ([18]; IC50 variant / IC50 WT): 2.6
- IC50 [18, 20]: 56 µM
- Resistance index (RI) ([19]; IC50 variant / IC50 WT): 18.7
- IC50 [19, 20]: 405 µM
